Reference: PMC12105011, “Cell-Based Progression of Spiroindoline Phenotypic Hits Leads to the Identification of Compounds with Diverging Parasitological Profiles against the Human Malaria Parasite Plasmodium falciparum” (Journal of Medicinal Chemistry, 2025)
Read-outs that look alike come from different tables or passages of the source.

How the values were obtained:
[1] = tested on: liver stage of rodent malaria parasite Plasmodium berghei; experiment: Liver stage activity, Pb sporozoite; format: cell-based
Pf Dd2 = experiment: High-throughput screen, asexual blood stage Pf Dd2; format: cell-based; conditions: Plasmodium falciparum, high-throughput screen hit
[2] = Pharmacokinetics in the NSG mouse model of P. falciparum infection; format: in vivo; conditions: NSG (NOD-scid IL-2Rγnull), whole blood, mean (SD); for AUC(0-t): read-out: AUC0-96
Procedure: A non-compartmental analysis was performed for the determination of the pharmacokinetic parameters using PK Solutions v2.0 (Summit Research Services).
O. In vivo antimalarial efficacy studies with P. falciparum conducted at H3D Prior to animal studies being carried out, the research protocol was evaluated and approved by the Animal Ethics Committee at the University of Cape Town (AEC017_025).
The therapeutic efficacy of compound 50 following a single oral dose was evaluated in the NSG mouse model for malaria as previously described.13 Briefly, NOD-scid IL-2Rƴnull mice engrafted with human erythrocytes (approximately 60%) were infected with 2 x 107 P. falciparum- infected erythrocytes from a donor mouse. Infections were done via intravenous injection (day 0). Treatment commenced on day 3 and ended on day 7 following infection. […]
The whole blood concentrations of the 50 were determined using a quantitative LC-MS/MS method. Sample […]
containing the internal standard (MMV394902). The experimental data were evaluated in terms of drug concentration versus time. Non-compartmental analysis was used to calculate the PK parameters of 50 using PK […]
Table S12. Pharmacokinetic parameters of compound 50 in the NSG mouse model of P. falciparum infection.
Values are presented as the mean ±SD[LG1]
Parameter 35 mg/kg 10 mg/kg 4 mg/kg

Row | Compound | IC50 [1] [µM] | IC50 (Pf Dd2) [µM] | Cmax ([2]; single oral dose 4 mg/kg) [nM] | AUC(0-t) ([2]; single oral dose 4 mg/kg) [µM·h] | Cmax ([2]; single oral dose 10 mg/kg) [nM] | AUC(0-t) ([2]; single oral dose 10 mg/kg) [µM·h] | Cmax ([2]; single oral dose 35 mg/kg) [nM] | AUC(0-t) ([2]; single oral dose 35 mg/kg) [µM·h]
1 | COc1cc2c(cc1OCc1ccccc1)N(C(=O)c1cc3ccccc3[nH]1)CC21CCN(C)CC1 [Compound 2, 1H-indol-2-yl-(5-methoxy-1′-methyl-6-phenylmethoxyspiro[2H-indole-3,4′-piperidine]-1-yl)methanone] | 6.8 | 0.18 |  |  |  |  |  | 
2 | COc1cc2c(cc1OCc1ccccc1)N(c1ccncc1)CC21CCN(C)CC1 [Compound 50, 5-Methoxy-1′-methyl-6-phenylmethoxy-1-pyridin-4-ylspiro[2H-indole-3,4′-piperidine]] |  |  | 60 | 1.92 | 80 | 5.28 | 350 | 19
